# Experimental data published in ChEMBL document CHEMBL1124865, “Synthesis and biological evaluation of a series of parenteral 3'-quaternary ammonium cephalosporins” (J Med Chem, 1990).
# Legend:
# Format in all cases: functional
# Staphylococcus aureus [1] = assay: Antibacterial activity against penicillin G susceptible Staphylococcus aureus; conditions: Staphylococcus aureus; read-out: MIC
# Enterobacter cloacae [2] = assay: Antibacterial activity against Enterobacter cloacae EB5; conditions: Enterobacter cloacae; read-out: MIC
# Pseudomonas aeruginosa [3] = assay: Antibacterial activity against Pseudomonas aeruginosa PS18; conditions: Pseudomonas aeruginosa; read-out: MIC
# Escherichia coli [4] = assay: Antibacterial activity against Escherichia coli EC14; conditions: Escherichia coli; read-out: MIC
# Klebsiella pneumoniae [5] = assay: Antibacterial activity against Klebsiella pneumoniae X26; conditions: Klebsiella pneumoniae; read-out: MIC
# Pseudomonas aeruginosa [6] = assay: Antibacterial activity against Pseudomonas aeruginosa X528
# Streptococcus pyogenes = assay: Antibacterial activity against Streptococcus pyogenes
# Streptococcus pneumoniae = assay: Antibacterial activity against Streptococcus pneumoniae; conditions: Streptococcus pneumoniae; read-out: MIC
# Escherichia coli [7] = assay: Antibacterial activity against Escherichia coli TEM; conditions: Escherichia coli; read-out: MIC
# Enterococcus faecium = assay: Antibacterial activity against Enterococcus faecium; conditions: Enterococcus faecium; read-out: MIC
# Staphylococcus aureus [8] = assay: Antibacterial activity against penicillin G resistance Staphylococcus aureus; conditions: Staphylococcus aureus; read-out: MIC
# Klebsiella pneumoniae [9] = assay: microbe, parasite or virus in culture; conditions: Klebsiella pneumoniae; read-out: MIC
# Description: Antibacterial activity against Klebsiella pneumoniae 1082E
# Serratia marcescens = assay: Antibacterial activity against Serratia marcescens SE3; conditions: Serratia marcescens; read-out: MIC
# Enterobacter cloacae [10] = assay: Antibacterial activity against Enterobacter cloacae 265A; conditions: Enterobacter cloacae; read-out: MIC
# [11] = Pseudomonas aeruginosa, read-out: MIC
# [12] = Streptococcus pyogenes, read-out: MIC
Compound,MIC (Staphylococcus aureus [1]),MIC (Enterobacter cloacae [2]),MIC (Pseudomonas aeruginosa [3]),MIC (Escherichia coli [4]),MIC (Klebsiella pneumoniae [5]),MIC (Pseudomonas aeruginosa [6]; [11]),MIC (Streptococcus pyogenes; [12]),MIC (Streptococcus pneumoniae),MIC (Escherichia coli [7]),MIC (Enterococcus faecium),MIC (Staphylococcus aureus [8]),MIC (Klebsiella pneumoniae [9]),MIC (Serratia marcescens),MIC (Enterobacter cloacae [10]),MIC (Streptococcus pyogenes),MIC (Pseudomonas aeruginosa [6])
CO/N=C(\C(=O)N[C@@H]1C(=O)N2C(C(=O)[O-])=C(C[n+]3cccc4ccoc43)CS[C@H]12)c1csc(N)n1,2 µg/mL,0.125 µg/mL,16 µg/mL,< 0.008 µg/mL,< 0.008 µg/mL,4 µg/mL,< 0.008 µg/mL,< 0.008 µg/mL,0.06 µg/mL,> 128 µg/mL,16 µg/mL,4 µg/mL,0.125 µg/mL,8 µg/mL,,
CO/N=C(\C(=O)N[C@@H]1C(=O)N2C(C(=O)[O-])=C(C[n+]3ccc(Cl)cc3)CS[C@H]12)c1csc(N)n1,2 µg/mL,0.25 µg/mL,16 µg/mL,0.06 µg/mL,0.03 µg/mL,4 µg/mL,0.015 µg/mL,0.03 µg/mL,0.03 µg/mL,> 128 µg/mL,4 µg/mL,16 µg/mL,0.25 µg/mL,32 µg/mL,,
CO/N=C(\C(=O)N[C@@H]1C(=O)N2C(C(=O)[O-])=C(C[n+]3ccc4[nH]c(-c5ccccc5)nc4c3)CS[C@H]12)c1csc(N)n1,2 µg/mL,0.5 µg/mL,128 µg/mL,,0.015 µg/mL,,0.008 µg/mL,0.008 µg/mL,,128 µg/mL,8 µg/mL,2 µg/mL,1 µg/mL,,,
CO/N=C(\C(=O)N[C@@H]1C(=O)N2C(C(=O)[O-])=C(C[n+]3cccc4cc[nH]c43)CS[C@H]12)c1csc(N)n1,1 µg/mL,2 µg/mL,64 µg/mL,0.5 µg/mL,0.06 µg/mL,32 µg/mL,< 0.008 µg/mL,0.015 µg/mL,0.125 µg/mL,> 128 µg/mL,8 µg/mL,64 µg/mL,0.5 µg/mL,32 µg/mL,,
CO/N=C(\C(=O)N[C@@H]1C(=O)N2C(C(=O)[O-])=C(C[n+]3ccc4scnc4c3)CS[C@H]12)c1csc(N)n1,1 µg/mL,,4 µg/mL,0.015 µg/mL,0.015 µg/mL,1 µg/mL,0.015 µg/mL,0.015 µg/mL,,,8 µg/mL,4 µg/mL,,8 µg/mL,,
CO/N=C(\C(=O)N[C@@H]1C(=O)N2C(C(=O)[O-])=C(C[n+]3cccc4c(O)cccc43)CS[C@H]12)c1csc(N)n1,2 µg/mL,0.5 µg/mL,8 µg/mL,0.03 µg/mL,0.03 µg/mL,8 µg/mL,0.015 µg/mL,0.03 µg/mL,0.06 µg/mL,128 µg/mL,2 µg/mL,8 µg/mL,0.5 µg/mL,32 µg/mL,,
CO/N=C(\C(=O)N[C@@H]1C(=O)N2C(C(=O)[O-])=C(C[n+]3ccc4scc(C(=O)O)c4c3)CS[C@H]12)c1csc(N)n1,2 µg/mL,0.125 µg/mL,16 µg/mL,0.015 µg/mL,0.015 µg/mL,4 µg/mL,0.03 µg/mL,0.015 µg/mL,0.06 µg/mL,> 128 µg/mL,16 µg/mL,4 µg/mL,0.03 µg/mL,32 µg/mL,,
CO/N=C(\C(=O)N[C@@H]1C(=O)N2C(C(=O)[O-])=C(C[n+]3ccc4c(S(=O)(=O)O)cccc4c3)CS[C@H]12)c1csc(N)n1,4 µg/mL,0.25 µg/mL,16 µg/mL,0.015 µg/mL,0.03 µg/mL,32 µg/mL,,0.015 µg/mL,0.03 µg/mL,> 128 µg/mL,8 µg/mL,32 µg/mL,0.25 µg/mL,64 µg/mL,0.015 µg/mL,
CO/N=C(\C(=O)N[C@@H]1C(=O)N2C(C(=O)[O-])=C(C[n+]3ccc4[nH]c(-c5cccs5)nc4c3)CS[C@H]12)c1csc(N)n1,2 µg/mL,0.5 µg/mL,128 µg/mL,,0.015 µg/mL,,0.008 µg/mL,0.008 µg/mL,,128 µg/mL,8 µg/mL,4 µg/mL,1 µg/mL,,,
CO/N=C(\C(=O)N[C@@H]1C(=O)N2C(C(=O)[O-])=C(C[n+]3ccc4[nH]cnc4c3)CS[C@H]12)c1csc(N)n1,2 µg/mL,,8 µg/mL,0.008 µg/mL,0.008 µg/mL,2 µg/mL,0.008 µg/mL,0.008 µg/mL,0.008 µg/mL,,2 µg/mL,8 µg/mL,0.125 µg/mL,8 µg/mL,,
CO/N=C(\C(=O)N[C@@H]1C(=O)N2C(C(=O)[O-])=C(C[n+]3ccc(CC(=O)NO)cc3)CS[C@H]12)c1csc(N)n1 (stereo in doubt; 19),,,,,,,,,,,,,,,,2 µg/mL
